Source: US20100234766A1, “Topical administration of a salt compound to facilitate venipuncture” (priority 2006, published 2010)

Key:
vein of the inner elbow = test: Vein diameter from visible light images after swabbing, arm stationary (Examples 3 and 4); conditions: for AVERAGE % CHANGE IN VEIN DIAMETER: nine minutes following application; for vasodilation of the vein of the elbow (in words): summary of Table 4, salts at 10 mM; for Diameter Post-Application / Diameter Pre-Application / Percent change (vein diameter): Example 3; for Diameter Post-Application: endpoint image nine minutes following application, concentration as in test agent label; for Diameter Pre-Application: initial image prior to application of test agent (baseline); for Percent change (vein diameter): nine minutes following application versus pre-application;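 for all read-outs here: agents applied to skin over the inner elbow vein with the arm resting still on a table, diameter read in pixels from images taken before and nine minutes after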
Protocol: Studies in Example 2 were performed except that the vein of the inner elbow, the site most frequently used for phlebotomy, was evaluated and vein diameter was measured from enlarged, sequential, visible light images. […] Instead the response to swabbing was recorded with the arm in a stationary position resting on a table top.
The initial image was taken prior to application of each test agent. The endpoint image was taken nine minutes following application of the test agent. The vein diameters were measured in pixels.
The procedure of Example 3 was repeated utilizing swabs impregnated with various salt compounds on one to three adult male and female subjects. Each test compound was applied to the skin overlying the vein of the inner elbow. The initial image was taken prior to application of each test agent. The endpoint image was taken nine minutes following application of the test agent. The vein diameters were measured in pixels.

[1] = test system: veins visible on the dorsum of the hand; test: Peripheral venous filling time after topical application (Example 1); format: in vivo, human; conditions: for VENOUS FILL TIME: average of two subjects; for effect on venous fill time (in words): topical application, dorsum of hand, summary of Table 1
Protocol: Several studies were conducted to determine the effect of topically applied compounds on peripheral venous filling. The same two healthy adult male volunteer subjects were used for each of the studies.
In each study, a baseline value for peripheral venous filling time was determined as follows. Each subject held their outstretched arm vertically with hand directed upwards toward the ceiling for a period of time sufficient to cause the veins visible on the dorsum of the hand to attain their minimum dilation. Then, the subject lowered their hand and held their outstretched arm vertically with hand directed downwards toward the floor for a period of time sufficient to cause the veins visible on the dorsum of the hand to attain their maximum dilation. The time for the veins to attain maximum dilation following the lowering of the hands was measured.
This procedure was repeated following application of a test compound to the site of visible veins on the dorsum of the hands in order to determine the effect of the test compound on venous filling. Longer venous filling times are indicative of vasodilation and increased pooling of blood within the vein.

dorsal hand veins = test: Infrared thermal imaging of dorsal hand veins after swabbing and hand elevation (Example 2); format: in vivo, human
Protocol: Infrared (IR) thermal imaging utilizing a standardized, calibrated infrared (950 nm wavelength) camera acquiring electronic images and providing color coded maps for testing effects of test vasodilator chemical compounds on dorsal hand veins was performed in three male and two female healthy volunteers. Infrared was utilized to determine the degree to which the test chemical compounds cause vasodilation because infrared provides a measure of thermal gradient and diameter that correlates well with visual indications of increased venous size and with successful first attempt venipuncture. Test agents were applied by swabbing the target area for about 30 seconds. A baseline control without application of any swab or by swabbing with a placebo swab containing no liquid was performed at the start of each test as a basis to compare imaging of the vein dilator dependent filling. IR images were obtained using a standardized, calibrated infrared (950 nm wavelength) camera that acquired an electronic image and provided a color coded thermal map. […] The swab was rubbed onto the dorsal surface of a hand of each subject and then the hand was elevated for 2 minutes after which the hand was returned to a horizontal position. IR imaging was performed on the dorsum of the hand before elevation and at intervals following the return to the horizontal position.

[2] = Example 4, 10 mM, one to three subjects
[3] = Study 1, baseline (none) 54 sec, EtOH 70%, MgCl2 100 mM
[4] = Study 3, baseline (none) 51 sec, EtOH 70%, MgSO4 10 mM
[5] = Study 4, baseline (none) 39 sec, MgSO4 10 mM

Q: `[Ca+2].[Cl-].[Cl-]` [10 mM CaCl2, CaCl2] was tested. Which “AVERAGE % CHANGE IN VEIN DIAMETER” value (vein of the inner elbow; [2]) did it give?
A: 12.0%

Q: Which “AVERAGE % CHANGE IN VEIN DIAMETER” value (vein of the inner elbow; [2]) does the source give for `CC(=O)[O-].CC(=O)[O-].[Sr+2]` [10 mM Sr acetate, Sr acetate] here?
A: 7.35%

Q: With `[Cl-].[Cl-].[Mg+2]` [MgCl2] as the compound, how does the “AVERAGE % CHANGE IN VEIN DIAMETER” value (vein of the inner elbow; [2]) read?
A: 6.5%

Q: And the “VENOUS FILL TIME” value [1, 3]?
A: 158 s

Q: What about the “% CHANGE FROM BASELINE (venous fill time)” value (shortened to “% CHANGE FROM BASELINE”) [1, 3] of the same compound?
A: 190%

Q: And the “effect on venous fill time (in words)” value [1]?
A: substantial increases in venous filling time compared to baseline control

Q: How did the “AVERAGE % CHANGE IN VEIN DIAMETER” value (vein of the inner elbow; [2]) turn out when `CC(=O)[O-].CC(=O)[O-].[Mn+2]` [10 mM Mn acetate, Mn acetate] was run?
A: 0.0%

Q: With `[Cl][Mn][Cl]` [10 mM MnCl2, MnCl2] as the compound, how does the “AVERAGE % CHANGE IN VEIN DIAMETER” value (vein of the inner elbow; [2]) read?
A: 2.7%

Q: And the “vasodilation of the vein of the elbow (in words)” value (from here on “vasodilation”) (vein of the inner elbow; Example 4)?
A: mild vasodilation

Q: How did the “AVERAGE % CHANGE IN VEIN DIAMETER” value (vein of the inner elbow; [2]) turn out when `O=C([O-])CC(O)(CC(=O)[O-])C(=O)[O-].O=C([O-])CC(O)(CC(=O)[O-])C(=O)[O-].[Mg+2].[Mg+2].[Mg+2]` [10 mM Mg citrate, Mg citrate] was run?
A: 4.2%

Q: `CCO` [EtOH, ethyl alcohol] was tested. Which “VENOUS FILL TIME” value [1, 3] did it give?
A: 59 s

Q: And the “% CHANGE FROM BASELINE” value [1, 3]?
A: 9%

Q: What about the “VENOUS FILL TIME” value [1, 4] of the same compound?
A: 38 s

Q: What about the “% CHANGE FROM BASELINE” value [1, 4] of the same compound?
A: (−25) %

Q: And the “decrease in fill time” value ([1]; study 3, EtOH 70%, versus baseline)?
A: 25%

Q: And the “effect on venous fill time (in words)” value [1]?
A: no effect on venous fill time

Q: `O=S(=O)([O-])[O-].[Mg+2]` [MgSO4, magnesium sulfate] was tested. Which “Diameter Post-Application” value (vein of the inner elbow) did it give?
A: 73.06 pixels

Q: What about the “Diameter Pre-Application” value (vein of the inner elbow) of the same compound?
A: 65.86 pixels

Q: And the “Percent change (vein diameter)” value (vein of the inner elbow)?
A: 10.93%

Q: What about the “AVERAGE % CHANGE IN VEIN DIAMETER” value (vein of the inner elbow; [2]) of the same compound?
A: 30.0%

Q: And the “AVERAGE % CHANGE IN VEIN DIAMETER” value (vein of the inner elbow; Example 4, 100 mM)?
A: 25.2%

Q: What about the “AVERAGE % CHANGE IN VEIN DIAMETER” value (vein of the inner elbow; Example 4, 1 M) of the same compound?
A: 22.9%

Q: What about the optimal concentration (vein of the inner elbow; Example 4, from 10 mM, 100 mM and 1 M tested) of the same compound?
A: 10 mM

Q: What about the “vasodilation” value (vein of the inner elbow; Example 4) of the same compound?
A: powerful vasodilator

Q: What about the “effect on venous fill time (in words)” value [1] of the same compound?
A: substantial increases in venous filling time compared to baseline control

Q: What about the “Increase in Venous Diameter Following Hand Elevation” value (dorsal hand veins; MgSO4 10 mM in water, benzalkonium chloride 1%, maximal dilation after return to horizontal, control (dry swab) <10%) of the same compound?
A: 30%

Q: With `O=S(=O)([O-])[O-].[Zn+2]` [10 mM ZnSO4, ZnSO4] as the compound, how does the “AVERAGE % CHANGE IN VEIN DIAMETER” value (vein of the inner elbow; [2]) read?
A: −4.4%

Q: And the “vasodilation” value (vein of the inner elbow; Example 4)?
A: failed to demonstrate vasodilation

Q: For `O=S(=O)([O-])[O-].[Ca+2]` [10 mM CaSO4, CaSO4], which “AVERAGE % CHANGE IN VEIN DIAMETER” value (vein of the inner elbow; [2]) is on record?
A: 17.7%

Q: Which results are given for `CC(C)O` [Isopropyl alcohol, isopropyl alcohol, reference compound]?
A: Diameter Post-Application (vein of the inner elbow): 55.04 pixels; Diameter Pre-Application (vein of the inner elbow): 57.78 pixels; Percent change (vein diameter) (vein of the inner elbow): (−4.74) Percent; AVERAGE % CHANGE IN VEIN DIAMETER (vein of the inner elbow; Example 4, 70%): −13.2%; vasodilation of the vein of the elbow (in words) (vein of the inner elbow; Example 4): constriction of the underlying vein; VENOUS FILL TIME [1, 5]: 69 s; % CHANGE FROM BASELINE (venous fill time) [1, 5]: 76%; effect on venous fill time (in words) [1]: increased venous fill time; effect on dorsal hand veins on IR examination (in words), early (dorsal hand veins; Example 2a, compared to dry swab control, 30 seconds following return to horizontal, 70% isopropyl alcohol): initial vasoconstriction with reduced filling of the veins on the dorsum of the hand

Q: Which “AVERAGE % CHANGE IN VEIN DIAMETER” value (vein of the inner elbow; [2]) does the source give for `CC(=O)[O-].CC(=O)[O-].[Ca+2]` [10 mM Ca acetate, Ca acetate] here?
A: −0.5%

Q: And the “vasodilation” value (vein of the inner elbow; Example 4)?
A: did not show vasodilation

Q: Which “AVERAGE % CHANGE IN VEIN DIAMETER” value (vein of the inner elbow; [2]) does the source give for `O=S(=O)([O-])[O-].[Cu+2]` [10 mM CuSO4, CuSO4] here?
A: 20.95%

Q: Which “Diameter Post-Application” value (vein of the inner elbow) does the source give for “benzalkonium chloride [1% benzalkonium chloride, reference compound]” here?
A: 37.80 pixels

Q: And the “Diameter Pre-Application” value (vein of the inner elbow)?
A: 34.41 pixels

Q: And the “Percent change (vein diameter)” value (vein of the inner elbow)?
A: 9.85%

Q: How did the “AVERAGE % CHANGE IN VEIN DIAMETER” value (vein of the inner elbow; [2]) turn out when `O=S(=O)([O-])[O-].[Mn+2]` [10 mM MnSO4, MnSO4] was run?
A: 0.0%

Q: How did the “AVERAGE % CHANGE IN VEIN DIAMETER” value (vein of the inner elbow; [2]) turn out when `CC(=O)[O-].CC(=O)[O-].[Mg+2]` [10 mM Mg acetate, Mg acetate] was run?
A: 27.9%

Q: Which results are given for `[Cl-].[Cl-].[Sr+2]` [10 mM SrCl2, SrCl2]?
A: AVERAGE % CHANGE IN VEIN DIAMETER (vein of the inner elbow; [2]): −6.0%; vasodilation of the vein of the elbow (in words) (vein of the inner elbow; Example 4): did not show vasodilation

Q: For `O=S(=O)([O-])[O-].[Sr+2]` [10 mM SrSO4, SrSO4], which “AVERAGE % CHANGE IN VEIN DIAMETER” value (vein of the inner elbow; [2]) is on record?
A: 16.95%

Q: For `[Cl][Cu][Cl]` [10 mM CuCl2, CuCl2], which “AVERAGE % CHANGE IN VEIN DIAMETER” value (vein of the inner elbow; [2]) is on record?
A: 10.5%
